From BigSolDB 2.1

Compound: O=c1[nH]cc(F)c(=O)[nH]1
- solubility (mole fraction) (in ethanol, 293.15 K): 0.00246
- solubility (mole fraction) (in ethanol, 298.15 K): 0.00277
- solubility (mole fraction) (in ethanol, 303.15 K): 0.00307
- solubility (mole fraction) (in ethanol, 308.15 K): 0.0034
- solubility (mole fraction) (in ethanol, 313.15 K): 0.00382
- solubility (mole fraction) (in ethanol, 318.15 K): 0.00411
- solubility (mole fraction) (in ethanol, 323.15 K): 0.00455
- solubility (mole fraction) (in water, 293.15 K): 0.00155
- solubility (mole fraction) (in water, 298.15 K): 0.00176
- solubility (mole fraction) (in water, 303.15 K): 0.00195
- solubility (mole fraction) (in water, 308.15 K): 0.00214
- solubility (mole fraction) (in water, 313.15 K): 0.00241
- solubility (mole fraction) (in water, 318.15 K): 0.00278
- solubility (mole fraction) (in water, 323.15 K): 0.00312
